Among the data in US10577349B2 (Sanford Burnham Prebys Medical Discovery Institute, priority 2015, dated 2020) are IC50 values, retold here.

For one test, the system named is A375. The test is described as follows: 48 h Cytotoxicity A375. Type of test: cell-based. Particulars: Homo sapiens, A-375.
Test [1] has as its target EmCV Cap-dependent translation. The test is described as follows: In vitro translation assay, FF-EmCV-Ren construct, cap-dependent (FF luciferase). The class given is biochemical, rabbit reticulocyte lysates. An excerpt: (§1) The bicistronic dual-reporter constructs that contain the firefly luciferase (FF) sequence, followed by the (encephalomyocarditis virus) EmCV and Hepatitis C virus (HCV) IRES, respectively, and the Renilla reniformis (Ren) luciferase sequence, has been previously described (Bordeleau Me., et al. Functional characterization of IRESes by an inhibitor of the RNA helicase eIF4A. Nature chemical biology. 2006; 2:213-20). For measurement of translation from the FF-EmCV-Ren and FF-HCV-Ren constructs, rabbit reticulocyte lysates (RRL) (Life Technologies, Carlsbad, Calif., USA) and the Dual-Glo (Promega, Madison, Wis., USA) read-outs were chosen. Two μl rabbit reticulocyte lysates mixed with Translation Mix 20× (-Met) and Translation Mix 20× (-Leu) in a ratio of 1:1 were pre-incubated with test compounds in 1536-well plates for 1 h at room temperature. Then, translation was started by adding 0.1 μg RNA per well and incubated for 2 h at 30° C. After a short chill phase, 2.5 μl Dual-Glo reagent 1 was added to each well and incubated for 10 min before reading the FF luciferase activity with the ViewLux uHTS Microplate Imager (Perkin Elmer, Waltham, Mass., USA). Directly after, 2.5 μl Dual-Glo reagent 2 was dispensed to each well and incubated at room temperature for 10 min before reading the Ren luciferase activity on the ViewLux. To exclude the possibility that test compounds interfere with any of the luciferase activities, a counter assay was performed in which the compounds were added after the completion of the in vitro translation.

In test [2] the target is EmCV Cap-independent translation. The test is described as follows: In vitro translation assay, FF-EmCV-Ren construct, cap-independent (Ren luciferase). Type of test: biochemical, rabbit reticulocyte lysates.
Excerpt: as §1

Test [3] addresses HCV cap-dependent translation. Description: In vitro translation assay, FF-HCV-Ren construct, cap-dependent (FF luciferase). The class given is biochemical, rabbit reticulocyte lysates.
Excerpt: as §1

Test [4] concerns the target HCV cap-independent translation. Description: In vitro translation assay, FF-HCV-Ren construct, cap-independent (Ren luciferase). Type of test: biochemical, rabbit reticulocyte lysates.
Excerpt: as §1

A word on the IC50: it is the point on the concentration scale where inhibition reaches its midpoint. Read a low IC50 as greater potency. Consider `O=C(/C(Br)=C/c1cncc(F)c1)c1c(-c2ccccc2)c2cc(Cl)ccc2[nH]c1=O` (single isomer, unassigned) [Compound 110, 3-[(2Z)-2-bromo-3-(5-fluoro(3-pyridyl))prop-2-enoyl]-6-chloro-4-phenylhydroquinolin-2-one], for which the IC50 (in the test on A375; in test [1]; in test [2]; in test [3]; in test [4]) was 2 to 10 µM throughout.

For the molecule `O=C(/C=C/c1cncc(F)c1)c1c(-c2ccc(C(F)(F)F)cc2)c2cc(Cl)ccc2[nH]c1=O` [Compound 83, 3-[(2E)-3-(5-fluoro(3-pyridyl))prop-2-enoyl]-6-chloro-4-[4-(trifluoromethyl)phenyl]hydroquinolin-2-one], the IC50 (in the test with A375; in test [1]; in test [2]; in test [3]; in test [4]) was 2 to 10 µM each time.

For `O=C(/C=C/c1cnccn1)c1c(-c2ccccc2)c2cc(Cl)ccc2[nH]c1=O` [Compound 52, 6-Chloro-4-phenyl-3-(3-pyrazin-2-yl-acryloyl)-1H-quinolin-2-one], the IC50 was 2 to 10 µM in the test with A375; 2 to 10 µM in test [1]; 2 to 10 µM in test [2]; 10 to 20 µM in test [3]; 2 to 10 µM in test [4].

Consider `O=C(/C=C/c1ccccn1)c1c(-c2cncc(Br)c2)c2cc(Cl)ccc2[nH]c1=O` [Compound 104, 3-((2E)-3-(2-pyridyl)prop-2-enoyl)-4-(5-bromo(3-pyridyl))-6-chlorohydroquinolin-2-one], for which the IC50 fell in the range of 2 to 10 µM in the test with A375; 2 to 10 µM in test [1]; 2 to 10 µM in test [2]; 10 to 20 µM in test [3]; 2 to 10 µM in test [4].

Regarding `O=C(/C=C/c1cncc(F)c1)c1c(-c2cncc(F)c2)c2cc(Cl)ccc2[nH]c1=O` [Compound 99, 3-[(2E)-3-(5-fluoro(3-pyridyl))prop-2-enoyl]-6-chloro-4-(5-fluoro(3-pyridyl))hydroquinolin-2-one], the half-inhibitory concentration (IC50) with A375 was 2 to 10 µM; in test [1], 10 to 20 µM; in test [2], 2 to 10 µM; in test [3], 10 to 20 µM; in test [4] it was 2 to 10 µM.

`O=C(/C=C/c1nc2cc(Cl)c(Cl)cc2[nH]1)c1c(-c2ccccc2)c2cc(Cl)ccc2[nH]c1=O` [Compound 63, 6-Chloro-3-[3-(5,6-dichloro-1H-benzoimidazol-2-yl)-acryloyl]-4-phenyl-1H-quinolin-2-one]: the IC50 (in the test on A375; in test [1]; in test [2]; in test [3]; in test [4]) was 2 to 10 µM each time.

`O=C(/C=C/c1ccsc1)c1c(-c2ccccc2)c2cc(Cl)ccc2[nH]c1=O` [Compound 27, 6-Chloro-4-phenyl-3-(3-thiophen-3-yl-acryloyl)-1H-quinolin-2-one]: the IC50 (with A375; in test [1]; in test [2]; in test [3]; in test [4]) was 2 to 10 µM in each case.

For `O=C(/C=C/c1ccc(Br)cn1)c1c(-c2ccccc2)c2cc(Cl)ccc2[nH]c1=O` [Compound 47, 3-[3-(5-Bromo-pyridin-2-yl)-acryloyl]-6-chloro-4-phenyl-1H-quinolin-2-one], the IC50 with A375 is under 2 µM; in test [1], 2 to 10 µM; in test [2] it was 2 to 10 µM; in test [3] it was 2 to 10 µM; in test [4], 2 to 10 µM.

As to `Cc1ccnc(-c2c(C(=O)/C=C/c3cncc(F)c3)c(=O)[nH]c3ccc(Cl)cc23)c1` [Compound 93, 3-[(2E)-3-(5-fluoro(3-pyridyl))prop-2-enoyl]-6-chloro-4-(4-methyl(2-pyridyl))hydroquinolin-2-one], the IC50 in the test on A375 is under 2 µM; in test [1], over 20 µM; in test [2] it was 10 to 20 µM; in test [3], over 20 µM; in test [4], over 20 µM.

For the molecule `Cn1ccnc1/C=C/C(=O)c1c(-c2ccccc2)c2cc(Cl)ccc2[nH]c1=O` [Compound 45, 6-Chloro-3-[3-(1-methyl-1H-imidazol-2-yl)-acryloyl]-4-phenyl-1H-quinolin-2-one], the IC50 in the test on A375 was in the range of 2 to 10 µM; in test [1], 2 to 10 µM; in test [2], 2 to 10 µM; in test [3] it was 10 to 20 µM; in test [4], 2 to 10 µM.

`O=C(/C=C/c1ccncc1)c1c(-c2ccccc2)c2ccncc2[nH]c1=O` [Compound 23, 4-Phenyl-3-(3-pyridin-4-yl-acryloyl)-1H-[1,7]naphthyridin-2-one]: the IC50 in the test with A375 was under 2 µM; in test [1] it was over 20 µM; in test [2], 10 to 20 µM; in test [3] it was over 20 µM; in test [4], over 20 µM.

As for `O=C(/C=C/c1ccc(Cl)s1)c1c(-c2ccccc2)c2cc(Cl)ccc2[nH]c1=O` [Compound 113, 6-Chloro-3-[3-(5-chloro-thiophen-2-yl)-acryloyl]-4-phenyl-1H-quinolin-2-one], the IC50 (in the test on A375; in test [1]; in test [2]; in test [3]; in test [4]) was 2 to 10 µM throughout.

On to `O=C(/C=C/c1ccc(F)cc1F)c1c(-c2ccccc2)c2cc(Cl)ccc2[nH]c1=O` [Compound 41, 6-Chloro-3-[3-(2,4-difluoro-phenyl)-acryloyl]-4-phenyl-1H-quinolin-2-one], for which the IC50 in the test with A375 is under 2 µM; in test [1], 2 to 10 µM; in test [2], 2 to 10 µM; in test [3] it was 2 to 10 µM; in test [4], 2 to 10 µM.

For the molecule `O=C(/C=C/c1cncc(F)c1)c1c(-c2ccc(F)cc2)c2cc(Cl)ccc2[nH]c1=O` [Compound 77, 3-[(2E)-3-(5-fluoro(3-pyridyl))prop-2-enoyl]-6-chloro-4-(4-fluorophenyl)hydroquinolin-2-one], the IC50 is under 2 µM in the test on A375; 2 to 10 µM in test [1]; 2 to 10 µM in test [2]; 2 to 10 µM in test [3]; 2 to 10 µM in test [4].

Turning to `O=C(/C=C/c1ccccn1)c1c(-c2ccc(OC(F)(F)F)cc2)c2cc(Cl)ccc2[nH]c1=O` [Compound 88, 3-((2E)-3-(2-pyridyl)prop-2-enoyl)-6-chloro-4-[4-(trifluoromethoxy)phenyl]hydroquinolin-2-one], the IC50 (in the test with A375; in test [1]; in test [2]; in test [3]; in test [4]) was 2 to 10 µM in each case.

Turning to `COCc1cncc(/C=C/C(=O)c2c(-c3ccccc3)c3cc(Cl)ccc3[nH]c2=O)c1` [Compound 73, 3-{(2E)-3-[5-(methoxymethyl)(3-pyridyl)]prop-2-enoyl}-6-chloro-4-phenylhydroquinolin-2-one], the IC50 with A375 is under 2 µM; in test [1], 2 to 10 µM; in test [2], 2 to 10 µM; in test [3], 2 to 10 µM; in test [4] it was 2 to 10 µM.

Turning to `COc1cncc(-c2c(C(=O)/C=C/c3cncc(F)c3)c(=O)[nH]c3ccc(Cl)cc23)c1` [Compound 97, 3-[(2E)-3-(5-fluoro(3-pyridyl))prop-2-enoyl]-6-chloro-4-(5-methoxy(3-pyridyl))hydroquinolin-2-one], the IC50 fell in the range of 2 to 10 µM in the test on A375; 2 to 10 µM in test [1]; 2 to 10 µM in test [2]; 10 to 20 µM in test [3]; 2 to 10 µM in test [4].

On to `O=C(/C=C/c1ccncc1)c1c(-c2ccccc2)c2cc(Cl)ccc2[nH]c1=O` [Compound 28, 6-Chloro-4-phenyl-3-(3-pyridin-4-yl-acryloyl)-1H-quinolin-2-one], for which the IC50 with A375 is under 2 µM; in test [1] it was 2 to 10 µM; in test [2] it was 2 to 10 µM; in test [3] it was 2 to 10 µM; in test [4], 2 to 10 µM.

Turning to `COCCn1c(/C=C/C(=O)c2c(-c3ccccc3)c3cc(Cl)ccc3[nH]c2=O)nc2ccccc21` [Compound 57, 6-Chloro-3-{3-[1-(2-methoxy-ethyl)-1H-benzoimidazol-2-yl]-acryloyl}-4-phenyl-1H-quinolin-2-one], the IC50 (with A375; in test [1]; in test [2]; in test [3]; in test [4]) was 2 to 10 µM each time.

For `O=C(/C=C/c1nc2ccccc2[nH]1)c1c(-c2cccnc2)c2cc(Cl)ccc2[nH]c1=O` [Compound 6, 3-(3-1H-Benzoimidazol-2-yl-acryloyl)-6-chloro-4-pyridin-3-yl-1H-quinolin-2-one], the IC50 in the test with A375 is over 20 µM; in test [1], 2 to 10 µM; in test [2], 2 to 10 µM; in test [3] it was 10 to 20 µM; in test [4], 10 to 20 µM.

For the molecule `COc1ccnc(/C=C/C(=O)c2c(-c3ccccc3)c3cc(Cl)ccc3[nH]c2=O)c1` [Compound 75, 3-[(2E)-3-(4-methoxy(2-pyridyl))prop-2-enoyl]-6-chloro-4-phenylhydroquinolin-2-one], the IC50 in the test with A375 is under 2 µM; in test [1], 2 to 10 µM; in test [2], 2 to 10 µM; in test [3] it was 2 to 10 µM; in test [4] it was 2 to 10 µM.
